Laboratory results as given in ChEMBL document CHEMBL1201861, “Genomics of Drug Sensitity in Cancer screening data, Wellcome Trust Sanger Institute”.

Assays:
Assay in all cases: cells
[1] = test system: CTV-1; format: functional, cell-based, Homo sapiens; conditions: Homo sapiens, CTV-1;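 further: growth inhibition of the cell line, read out with a cell viability assay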
Description: SANGER: Inhibition of human CTV-1 cell growth in a cell viability assay.

[2] = test system: DOHH-2; format: functional, cell-based, Homo sapiens; conditions: Homo sapiens, DOHH-2;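 further: growth inhibition of human DOHH-2 cells, read out with a cell viability assay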
Description: SANGER: Inhibition of human DOHH-2 cell growth in a cell viability assay.

[3] = test system: DU-4475; format: functional, cell-based, Homo sapiens; conditions: Homo sapiens, DU-4475
Description: SANGER: Inhibition of human DU-4475 cell growth in a cell viability assay.

[4] = test system: EKVX; format: functional, cell-based, Homo sapiens; conditions: Homo sapiens, EKVX;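 further: growth inhibition of human EKVX cells, read out with a cell viability assay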
Description: SANGER: Inhibition of human EKVX cell growth in a cell viability assay.

[5] = test system: ES3; format: functional, cell-based, Homo sapiens; conditions: Homo sapiens, ES3;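 further: growth inhibition of ES3 cells, read out with a cell viability assay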
Description: SANGER: Inhibition of human ES3 cell growth in a cell viability assay.

[6] = test system: ES4; format: functional, cell-based, Homo sapiens; conditions: Homo sapiens, ES4;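 further: growth inhibition of human ES4 cells, read out by a cell viability assay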
Description: SANGER: Inhibition of human ES4 cell growth in a cell viability assay.

[7] = test system: EW-16; format: functional, cell-based, Homo sapiens; conditions: Homo sapiens, EW-16;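 further: growth inhibition of human EW-16 cells, read out as cell viability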
Description: SANGER: Inhibition of human EW-16 cell growth in a cell viability assay.

[8] = test system: GI-1; format: functional, cell-based, Homo sapiens; conditions: Homo sapiens, GI-1;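 further: growth inhibition of human GI-1 cells, measured with a cell viability readout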
Description: SANGER: Inhibition of human GI-1 cell growth in a cell viability assay.

[9] = test system: HCC2157; format: functional, cell-based, Homo sapiens; conditions: Homo sapiens, HCC2157;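 further: growth inhibition of the cancer cell line, read out as cell viability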
Description: SANGER: Inhibition of human HCC2157 cell growth in a cell viability assay.

[10] = test system: HDLM-2; format: functional, cell-based, Homo sapiens; conditions: Homo sapiens, HDLM-2;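 further: cell viability assay measuring suppression of HDLM-2 proliferation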
Description: SANGER: Inhibition of human HDLM-2 cell growth in a cell viability assay.

[11] = test system: HL-60; format: functional, cell-based, Homo sapiens; conditions: Homo sapiens, HL-60;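 further: growth inhibition of human HL-60 cells, read out with a cell viability assay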
Description: SANGER: Inhibition of human HL-60 cell growth in a cell viability assay.

[12] = test system: HT; format: functional, cell-based, Homo sapiens; conditions: Homo sapiens, HT
Description: SANGER: Inhibition of human HT cell growth in a cell viability assay.

[13] = test system: J-RT3-T3-5; format: functional, cell-based, Homo sapiens; conditions: Homo sapiens, J-RT3-T3-5;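 further: cell viability assay measuring growth inhibition of human J-RT3-T3-5 cells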
Description: SANGER: Inhibition of human J-RT3-T3-5 cell growth in a cell viability assay.

[14] = test system: JVM-2; format: functional, cell-based, Homo sapiens; conditions: Homo sapiens, JVM-2;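 further: growth inhibition of JVM-2 cells determined by a cell viability assay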
Description: SANGER: Inhibition of human JVM-2 cell growth in a cell viability assay.

[15] = test system: KARPAS-45; format: functional, cell-based, Homo sapiens; conditions: Homo sapiens, KARPAS-45;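 further: inhibition of cell line growth, read out through a viability assay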
Description: SANGER: Inhibition of human KARPAS-45 cell growth in a cell viability assay.

[16] = test system: KU812 cell line; format: functional, cell-based, Homo sapiens; conditions: Homo sapiens, KU812;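 further: growth inhibition of KU812 cells, read out with a cell viability assay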
Description: SANGER: Inhibition of human KU812 cell growth in a cell viability assay.

[17] = test system: KURAMOCHI; format: functional, cell-based, Homo sapiens; conditions: Homo sapiens, KURAMOCHI;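 further: growth inhibition of KURAMOCHI cells, read out with a cell viability assay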
Description: SANGER: Inhibition of human KURAMOCHI cell growth in a cell viability assay.

[18] = test system: KY821; format: functional, cell-based, Homo sapiens; conditions: Homo sapiens, KY821;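 further: growth inhibition of human KY821 cells, read out by a cell viability assay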
Description: SANGER: Inhibition of human KY821 cell growth in a cell viability assay.

[19] = test system: LAMA-84; format: functional, cell-based, Homo sapiens; conditions: Homo sapiens, LAMA-84;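 further: growth inhibition of LAMA-84 cells, read out with a cell viability assay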
Description: SANGER: Inhibition of human LAMA-84 cell growth in a cell viability assay.

[20] = test system: LAN-6; format: functional, cell-based, Homo sapiens; conditions: Homo sapiens, LAN-6;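 further: growth inhibition of LAN-6 cells, determined with a cell viability assay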
Description: SANGER: Inhibition of human LAN-6 cell growth in a cell viability assay.

[21] = test system: LB1047-RCC; format: functional, cell-based, Homo sapiens; conditions: Homo sapiens, LB1047-RCC;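 further: inhibition of cell growth, determined with a cell viability assay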
Description: SANGER: Inhibition of human LB1047-RCC cell growth in a cell viability assay.

[22] = test system: LB771-HNC; format: functional, cell-based; conditions: Homo sapiens;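 further: growth inhibition of LB771-HNC human cells, read out with a cell viability assay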
Description: SANGER: Inhibition of human LB771-HNC cell growth in a cell viability assay.

[23] = test system: LC-2-ad; format: functional, cell-based, Homo sapiens; conditions: Homo sapiens, LC-2-ad;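 further: growth inhibition of human LC-2-ad cells, read out with a cell viability assay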
Description: SANGER: Inhibition of human LC-2-ad cell growth in a cell viability assay.

[24] = test system: LNCaP-Clone-FGC; format: functional, cell-based, Homo sapiens; conditions: Homo sapiens, LNCaP-Clone-FGC
Description: SANGER: Inhibition of human LNCaP-Clone-FGC cell growth in a cell viability assay.

[25] = test system: LS-411N; format: functional, cell-based, Homo sapiens; conditions: Homo sapiens, LS-411N
[26] = test system: LU-134-A; format: functional, cell-based, Homo sapiens; conditions: Homo sapiens, LU-134-A
Description: SANGER: Inhibition of human LU-134-A cell growth in a cell viability assay.

[27] = test system: MC116; format: functional, cell-based, Homo sapiens; conditions: Homo sapiens, MC116;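 further: growth inhibition of MC116 cells, read out with a cell viability assay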
Description: SANGER: Inhibition of human MC116 cell growth in a cell viability assay.

[28] = test system: NB10; format: functional, cell-based, Homo sapiens; conditions: Homo sapiens, NB10;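 further: growth inhibition of NB10 cells, read out by a cell viability assay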
Description: SANGER: Inhibition of human NB10 cell growth in a cell viability assay.

[29] = test system: NCI-H1155; format: functional, cell-based, Homo sapiens; conditions: Homo sapiens, NCI-H1155;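 further: cell growth inhibition measured by a viability assay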
Description: SANGER: Inhibition of human NCI-H1155 cell growth in a cell viability assay.

[30] = test system: NCI-H226; format: functional, cell-based, Homo sapiens; conditions: Homo sapiens, NCI-H226;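 further: cell viability read-out used to gauge growth inhibition of the cells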
Description: SANGER: Inhibition of human NCI-H226 cell growth in a cell viability assay.

[31] = test system: NKM-1; format: functional, cell-based, Homo sapiens; conditions: Homo sapiens, NKM-1;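 further: growth inhibition of NKM-1 cells, read out with a cell viability assay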
Description: SANGER: Inhibition of human NKM-1 cell growth in a cell viability assay.

[32] = test system: P30-OHK; format: functional, cell-based, Homo sapiens; conditions: Homo sapiens, P30-OHK;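 further: growth inhibition of the P30-OHK cell line, read out with a cell viability assay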
Description: SANGER: Inhibition of human P30-OHK cell growth in a cell viability assay.

[33] = test system: RXF 393; format: functional, cell-based, Homo sapiens; conditions: Homo sapiens, RXF 393;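 further: growth inhibition of human RXF 393 cells, read out with a cell viability assay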
Description: SANGER: Inhibition of human RXF393 cell growth in a cell viability assay.

[34] = test system: SCH; format: functional, cell-based, Homo sapiens; conditions: Homo sapiens, SCH;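 further: growth inhibition of human SCH cells, read out in a cell viability assay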
Description: SANGER: Inhibition of human SCH cell growth in a cell viability assay.

[35] = test system: SK-PN-DW; format: functional, cell-based, Homo sapiens; conditions: Homo sapiens, SK-PN-DW;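 further: growth inhibition measured with a viability assay on these cells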
Description: SANGER: Inhibition of human SK-PN-DW cell growth in a cell viability assay.

[36] = test system: SK-UT-1; format: functional, cell-based, Homo sapiens; conditions: Homo sapiens, SK-UT-1;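 further: growth inhibition of SK-UT-1 cells, measured by a cell viability assay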
Description: SANGER: Inhibition of human SK-UT-1 cell growth in a cell viability assay.

[37] = test system: SW 954; format: functional, cell-based, Homo sapiens; conditions: Homo sapiens, SW 954;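 further: growth inhibition of SW954 human cancer cells, read out as cell viability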
Description: SANGER: Inhibition of human SW954 cell growth in a cell viability assay.

[38] = test system: TE-1; format: functional, cell-based, Homo sapiens; conditions: Homo sapiens, TE-1;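 further: growth inhibition of the human TE-1 cell line, read out with a cell viability assay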
Description: SANGER: Inhibition of human TE-1 cell growth in a cell viability assay.

[39] = test system: A253 cell line; format: functional, cell-based, Homo sapiens; conditions: Homo sapiens, A253;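 further: growth inhibition of A253 cells, read out with a cell viability assay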
Description: SANGER: Inhibition of human A253 cell growth in a cell viability assay.

[40] = test system: A4-Fuk; format: functional, cell-based, Homo sapiens; conditions: Homo sapiens, A4-Fuk;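 further: growth inhibition of A4-Fuk cells, read out by a cell viability assay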
Description: SANGER: Inhibition of human A4-Fuk cell growth in a cell viability assay.

[41] = test system: A498; format: functional, cell-based, Homo sapiens; conditions: Homo sapiens, A498;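 further: growth inhibition of human A498 cells, read out with a cell viability assay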
Description: SANGER: Inhibition of human A498 cell growth in a cell viability assay.

[42] = test system: ACN; format: functional, cell-based, Homo sapiens; conditions: Homo sapiens, ACN;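 further: growth inhibition of the human ACN cell line, read out via cell viability testing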
Description: SANGER: Inhibition of human ACN cell growth in a cell viability assay.

[43] = test system: TE-11; format: functional, cell-based; conditions: Homo sapiens;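 further: growth inhibition of human TE-11 cells, read out by a cell viability assay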
Description: SANGER: Inhibition of human TE-11 cell growth in a cell viability assay.

[44] = test system: TE-12; format: functional, cell-based, Homo sapiens; conditions: Homo sapiens, TE-12;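 further: growth inhibition of TE-12 cells, read out by a cell viability assay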
Description: SANGER: Inhibition of human TE-12 cell growth in a cell viability assay.

[45] = test system: TGBC24TKB; format: functional, cell-based; conditions: Homo sapiens;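 further: growth inhibition of human TGBC24TKB cells, read out with a cell viability assay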
Description: SANGER: Inhibition of human TGBC24TKB cell growth in a cell viability assay.

[46] = test system: UACC-257; format: functional, cell-based, Homo sapiens; conditions: Homo sapiens, UACC-257
Description: SANGER: Inhibition of human UACC-257 cell growth in a cell viability assay.

[47] = test system: CAS-1; format: functional, cell-based, Homo sapiens; conditions: Homo sapiens, CAS-1;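 further: growth inhibition of CAS-1 cells, measured with a cell viability assay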
Description: SANGER: Inhibition of human CAS-1 cell growth in a cell viability assay.

Cc1cc(N2CCOCC2)cc2[nH]c(-c3c(NC[C@@H](O)c4cccc(Cl)c4)cc[nH]c3=O)nc12
IC50 [1]: 2.88 µM | IC50 [2]: > 5.12 µM | IC50 [3]: > 5.12 µM | IC50 [4]: 2.51 µM | IC50 [5]: > 5.12 µM | IC50 [6]: 0.622 µM | IC50 [7]: 0.206 µM | IC50 [8]: 0.913 µM | IC50 [9]: > 5.12 µM | IC50 [10]: > 5.12 µM | IC50 [11]: 0.286 µM | IC50 [12]: > 5.12 µM | IC50 [13]: > 5.12 µM | IC50 [14]: > 5.12 µM | IC50 [15]: 4.01 µM | IC50 [16]: > 5.12 µM | IC50 [17]: 4 µM | IC50 [18]: > 5.12 µM | IC50 [19]: > 5.12 µM | IC50 [20]: 0.172 µM | IC50 [21]: 0.642 µM | IC50 [22]: 0.23 µM | IC50 [23]: 0.117 µM | IC50 [24]: > 5.12 µM | IC50 [25]: 0.498 µM | IC50 [26]: 1.6 µM | IC50 [27]: > 5.12 µM | IC50 [28]: > 5.12 µM | IC50 [29]: > 5.12 µM | IC50 [30]: > 5.12 µM | IC50 [31]: > 5.12 µM | IC50 [32]: > 5.12 µM | IC50 [33]: 1.3 µM | IC50 [34]: > 5.12 µM | IC50 [35]: 3.43 µM | IC50 [36]: > 5.12 µM | IC50 [37]: 0.49 µM | IC50 [38]: 0.754 µM | IC50 [39]: > 5.12 µM | IC50 [40]: 0.0578 µM | IC50 [41]: > 5.12 µM | IC50 [42]: 1.98 µM | IC50 [43]: 0.152 µM | IC50 [44]: 0.176 µM | IC50 [45]: 0.275 µM | IC50 [46]: > 5.12 µM | IC50 [47]: > 5.12 µM
